# In PubChem BioAssay (NCI):
#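 Interpolation was linear, between the two tested concentrations surrounding the appropriate level; five concentrations were tested over 48 hours in 96-well plates. TGI: concentration producing complete growth inhibition.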
# Assays:
# Assay in all cases: inhibition of tumour cell growth, NCI panel, 48 h
# 786-0 renal = system: 786-0 renal
# A498 renal = system: A498 renal
# A549 NSCLC = system: A549 NSCLC
# ACHN renal = system: ACHN renal
# BT-549 breast = system: BT-549 breast
# CAKI-1 renal = system: CAKI-1 renal
# CCRF-CEM leukemia = system: CCRF-CEM leukemia
# COLO 205 colon = system: COLO 205 colon
# DU-145 prostate = system: DU-145 prostate
# EKVX NSCLC = system: EKVX NSCLC
# HCC-2998 colon = system: HCC-2998 colon
# HCT-116 colon = system: HCT-116 colon
# HCT-15 colon = system: HCT-15 colon
# HL-60(TB) leukemia = system: HL-60(TB) leukemia
# HOP-62 NSCLC = system: HOP-62 NSCLC
# HOP-92 NSCLC = system: HOP-92 NSCLC
# HS 578T breast = system: HS 578T breast
# HT29 colon = system: HT29 colon
# IGROV1 ovarian = system: IGROV1 ovarian
# K-562 leukemia = system: K-562 leukemia
# KM12 colon = system: KM12 colon
# M14 melanoma = system: M14 melanoma
# MCF7 breast = system: MCF7 breast
# MDA-MB-231 breast = system: MDA-MB-231 breast
# MDA-MB-435 = system: MDA-MB-435
# MOLT-4 leukemia = system: MOLT-4 leukemia
# NCI-H226 lung = system: NCI-H226 lung
# NCI-H23 lung = system: NCI-H23 lung
# NCI-H460 lung = system: NCI-H460 lung
# NCI-H522 lung = system: NCI-H522 lung
# NCI/ADR-RES ovarian = system: NCI/ADR-RES ovarian
# OVCAR-4 ovarian = system: OVCAR-4 ovarian
# OVCAR-5 ovarian = system: OVCAR-5 ovarian
# OVCAR-8 ovarian = system: OVCAR-8 ovarian
# PC-3 prostate = system: PC-3 prostate
# RPMI-8226 leukemia = system: RPMI-8226 leukemia
# RXF 393 renal = system: RXF 393 renal
# SF-268 CNS = system: SF-268 CNS
# SF-295 CNS = system: SF-295 CNS
# SF-539 CNS = system: SF-539 CNS
# SK-MEL-2 melanoma = system: SK-MEL-2 melanoma
# SK-MEL-28 melanoma = system: SK-MEL-28 melanoma
# SK-MEL-5 melanoma = system: SK-MEL-5 melanoma
# SK-OV-3 ovarian = system: SK-OV-3 ovarian
# SN12C renal = system: SN12C renal
# SNB-19 CNS = system: SNB-19 CNS
# SNB-75 CNS = system: SNB-75 CNS
# SR leukemia = system: SR leukemia
# SW-620 colon = system: SW-620 colon
# T-47D breast = system: T-47D breast
# TK-10 renal = system: TK-10 renal
# U251 CNS = system: U251 CNS
# UACC-257 melanoma = system: UACC-257 melanoma
# UACC-62 melanoma = system: UACC-62 melanoma
# UO-31 renal = system: UO-31 renal
smiles,measurement,setting,value
Nc1nc(CCl)nc(N2CCOCC2)n1,TGI,786-0 renal,29.2 µM
same,TGI,A498 renal,> 100 µM
same,TGI,A549 NSCLC,> 100 µM
same,TGI,ACHN renal,32.5 µM
same,TGI,BT-549 breast,> 100 µM
same,TGI,CAKI-1 renal,30.5 µM
same,TGI,CCRF-CEM leukemia,45.7 µM
same,TGI,COLO 205 colon,32.5 µM
same,TGI,DU-145 prostate,> 100 µM
same,TGI,EKVX NSCLC,38 µM
same,TGI,HCC-2998 colon,36.3 µM
same,TGI,HCT-116 colon,66.1 µM
same,TGI,HCT-15 colon,34.9 µM
same,TGI,HL-60(TB) leukemia,35.6 µM
same,TGI,HOP-62 NSCLC,44.5 µM
same,TGI,HOP-92 NSCLC,32.2 µM
same,TGI,HS 578T breast,> 100 µM
same,TGI,HT29 colon,> 100 µM
same,TGI,IGROV1 ovarian,32.6 µM
same,TGI,K-562 leukemia,54.4 µM
same,TGI,KM12 colon,> 100 µM
same,TGI,M14 melanoma,> 100 µM
same,TGI,MCF7 breast,> 100 µM
same,TGI,MDA-MB-231 breast,78.7 µM
same,TGI,MDA-MB-435,> 100 µM
same,TGI,MOLT-4 leukemia,> 100 µM
same,TGI,NCI-H226 lung,> 100 µM
same,TGI,NCI-H23 lung,35.1 µM
same,TGI,NCI-H460 lung,41.1 µM
same,TGI,NCI-H522 lung,11.1 µM
same,TGI,NCI/ADR-RES ovarian,89.2 µM
same,TGI,OVCAR-4 ovarian,33.4 µM
same,TGI,OVCAR-5 ovarian,47.3 µM
same,TGI,OVCAR-8 ovarian,> 100 µM
same,TGI,PC-3 prostate,> 100 µM
same,TGI,RPMI-8226 leukemia,> 100 µM
same,TGI,RXF 393 renal,> 100 µM
same,TGI,SF-268 CNS,> 100 µM
same,TGI,SF-295 CNS,> 100 µM
same,TGI,SF-539 CNS,51.9 µM
same,TGI,SK-MEL-2 melanoma,> 100 µM
same,TGI,SK-MEL-28 melanoma,45.9 µM
same,TGI,SK-MEL-5 melanoma,46.2 µM
same,TGI,SK-OV-3 ovarian,> 100 µM
same,TGI,SN12C renal,> 100 µM
same,TGI,SNB-19 CNS,> 100 µM
same,TGI,SNB-75 CNS,98.6 µM
same,TGI,SR leukemia,61.8 µM
same,TGI,SW-620 colon,60.4 µM
same,TGI,T-47D breast,> 100 µM
same,TGI,TK-10 renal,> 100 µM
same,TGI,U251 CNS,53.9 µM
same,TGI,UACC-257 melanoma,> 100 µM
same,TGI,UACC-62 melanoma,31.4 µM
same,TGI,UO-31 renal,31.6 µM
